Legend:
[1] = In vitro metabolic stability, hepatic microsomes (rat); type: in vitro ADME; conditions: pooled hepatic microsomes, pH 7.4; rat hepatic microsomes 1.0 mg/mL, 1 μM compound, NADPH and UDPGA cofactors; read-out: Microsome Stability T1/2 Rat
Procedure: Pooled hepatic microsomes were diluted in […] potassium phosphate buffer to 1.0 mg/mL final protein concentration. Alamethicin was added to the microsomal fraction to permeabilize the membrane to allow access of the UDP-glucronic acid (UDPGA) co-substrate to the active site of the UDP glucuronosyl transferase (UGT) enzymes. The final concentration was 25 μg/mL (ratio 25 μg alamethicin/mg microsomal protein) and the microsomes were then placed on ice for 15 min prior to the start of the reaction. Test compound was added to a final concentration of 1 μM. Positive control compounds known to be metabolized by oxidative and UGT enzymes were used. The metabolic reaction was warmed to 37° C. and initiated by the addition of a cofactor mix that consisted of 1.55 mM NADP, 3.3 mM glucose-6-phosphate, 0.4 U/mL glucose-6-phosphate dehydrogenase, 5 mM UDP-glucuronic acid and 3.3 mM MgCl2 all dissolved in 0.1 M potassium phosphate buffer, pH 7.4. At 2, 12, 25, 45, and 65 min, 25 μL aliquots of the reaction mixture were transferred to plates containing 225 μl of quenching solution (acetonitrile containing 300 nM labetalol IS and 0.1% formic acid). After quenching, the plates are centrifuged at 3000×g for 30 minutes to precipitate proteins, and 10 μL aliquots of the supernatant are analyzed by HPLC coupled to a high-resolution mass spectrometer.
Quantification of test compounds and positive controls were performed using analyte/internal standard peak area ratios (PAR) measured on a Q-Exactive mass spectrometer (Thermo Scientific, San Jose, Calif.) coupled to an Aria Transcend LX-4 multiplex UHPLC system (Thermo Scientific, San Jose, Calif.). A Hypersil Gold C18 UHPLC column (1.9 […], 50×2.1 mm) was used with mobile phases A and B consisting of 0.1% formic acid in water and 0.1% formic acid in acetonitrile, respectively. […] Half-lives of compounds in the incubations were calculated from extracted data using GMSU/QuickCalc (Gubbs, Inc.) and data are summarized in the following Table 3.

[2] = Pharmacokinetic analysis following oral administration to rats; type: in vivo, male Sprague-Dawley rats; conditions: rat, 5 mg/kg; for Cmax / AUC(0-t): male, Sprague-Dawley, plasma; for AUC(0-t): 0 to 24 hr, read-out: AUC0-24; for F: oral bioavailability
Procedure: Pharmacokinetic analysis was performed on various test compounds following intravenous or oral administration to male Sprague-Dawley rats.
For pharmacokinetic analysis of intravenously administered compounds, the test compounds were formulated in 5% NMP, 30% PG, 45% PEG 300 and 20% water at 0.5 mg/mL for IV infusion. For pharmacokinetic analysis following oral administration, compounds were formulated in the same vehicle and concentration.
Each dosing group consisted of 3 male, naïve Sprague-Dawley rats. At dosing, animals weighed approximately 0.28 kg. The animals were fasted overnight prior to dose administration and up to 4 hr after dosing. For studies of intravenous administration, the test article was administered to the animals by intravenous infusion over 30 min. The rate of infusion was adjusted according to the body weight of each animal to deliver a dose of 1 mg/kg. For studies of oral administration, the test article was administered according to the body weight of each animal to deliver a dose of 5 mg/kg.
For pharmacokinetic analysis of orally administered compounds, serial venous blood samples (approximately 0.3 mL each) were taken from each animal at time points of 0, 0.25, 0.50, 1.0, 2.0, 4.0, 6.0, 8.0, 12.0 and 24.0 hours after dosing. Blood samples were collected, prepared and analyzed in a similar way to the intravenous studies described above. Non-compartmental pharmacokinetic analysis was performed on the plasma concentration-time data. The resulting data are shown in the last three columns of Table 4. In Table 4, F (%) refers to oral bioavailability. Cmax refers to the peak plasma concentration of the compound after administration. AUC0-24 refers to area under the curve for the 0 to 24 hr plasma collection interval and is a measure of total plasma exposure of the indicated compound.

[3] = system: HBsAg; experiment: PHH assay for inhibition of HBsAg; type: cell-based, genotype D (AD38-derived) HBV in primary human hepatocytes; conditions: Hepatitis B virus, 288 h, read-out: HBsAg EC50
Procedure: Primary human hepatocytes (PHH) (Bioreclamation IVT) were plated on collagen-coated flasks using Plating Media (Life Technologies) containing William's Medium E supplemented with 1% penicillin/streptomycin, 4 μg/mL human recombinant insulin, 2 mM GlutaMAX, 15 mM HEPES, 1 μM dexamethasone, 5% fetal bovine serum, and 0.2% Torpedo Antibiotic Mix (Bioreclamation IVT). After a 4-hour incubation at 37° C., cells were switched to Maintenance Media (Life Technologies) containing William's Medium E supplemented with 0.5% penicillin/streptomycin, 6.25 µg/mL human recombinant insulin, 6.25 μg/mL human transferrin, 6.25 ng/mL selenous acid, 1.25 mg/mL bovine serum albumin, 5.35 μg/mL linoleic acid, 2 mM GlutaMAX, 15 mM HEPES, 0.1 μM dexamethasone, 2% fetal bovine serum, 2% DMSO, and 0.2% Torpedo Antibiotic Mix (Bioreclamation IVT). On the next day, PHH were infected with 500 genome equivalent per cell of genotype D (AD38-derived) HBV in Maintenance Media supplemented with 4% PEG 8000 (Promega). After 24 hour incubation, cells were washed three times with William's Medium E and fed with fresh Maintenance Media. At 3 days after infection, infected PHH cells were seeded on 96-well plates pre-coated with collagen at a density of 65000 cells per well containing serially diluted solutions of certain compounds disclosed herein or DMSO (1% final concentration) in a final volume of 125 μl of Maintenance Media (Life Technologies) containing William's Medium E supplemented with 0.5% penicillin/streptomycin, 6.25 μg/mL human recombinant insulin, 6.25 μg/mL human transferrin, 6.25 ng/mL selenous acid, 1.25 mg/mL bovine serum albumin, 5.35 μg/mL linoleic acid, 2 mM GlutaMAX, 15 mM HEPES, 0.1 μM dexamethasone, 5% fetal bovine serum, 1 mM 1-amininobenzotriaole, and 0.2% Torpedo Antibiotic Mix (Bioreclamation IVT). Media with compounds was replenished every 2-3 days. After an incubation time of 12 days, secreted HBsAg in the supernatant were measured using a multiplex chemiluminescent (Mesoscale discovery, MSD) assay using capture and detection antibody pairs specific for HBsAg. Comparative Example 1 and Comparative Example 2 have the following structures and were prepared according to International Publication No. WO 2015/113990.

SMILES | half-life at 1 μM [1] [h] | Cmax [2] [µM] | AUC(0-t) [2] [µM·h] | F [2] [%] | EC50 [3] [nM]
COCCCOc1cc2c(cc1Cl)-c1cc(=O)c(C(=O)O)cn1[C@H](C1(C)CC1)C2 [Comparative Example 1] | 3.82 | 4.03 | 22.1 | 53.8 | 1.8
COCCCOc1cc2c(cc1Cl)-c1cc(=O)c(C(=O)O)cn1[C@H](C(C)(C)C)C2 [Comparative Example 2] | 3.83 | 2.43 | 15.2 | 40.5 | 0.5
COCCCOc1cc2c(cc1Cl)-c1cc(=O)c(C(=O)O)cn1N(C(C)(C)C)C2 [Example 2, 6-(tert-Butyl)-10-chloro-9-(3-methoxypropoxy)-2-oxo-6,7-dihydro-2H-pyrido[2,1-a]-phthalazine-3-carboxylic acid] | > 5.83 | 6.76 | 68.6 | 109 | 3
